Test results as given in ChEMBL document CHEMBL2074038 (J Pharmacol Exp Ther, 2003).

Target: ATP-dependent translocase ABCB1 (Homo sapiens, UniProt P08183)
Experiment: TP_TRANSPORTER: transepithelial transport in MDR1-expressing LLC-PK1 cells
Format: functional, cell-based
Details: pig

Sequence of ATP-dependent translocase ABCB1 (P08183 whole entry): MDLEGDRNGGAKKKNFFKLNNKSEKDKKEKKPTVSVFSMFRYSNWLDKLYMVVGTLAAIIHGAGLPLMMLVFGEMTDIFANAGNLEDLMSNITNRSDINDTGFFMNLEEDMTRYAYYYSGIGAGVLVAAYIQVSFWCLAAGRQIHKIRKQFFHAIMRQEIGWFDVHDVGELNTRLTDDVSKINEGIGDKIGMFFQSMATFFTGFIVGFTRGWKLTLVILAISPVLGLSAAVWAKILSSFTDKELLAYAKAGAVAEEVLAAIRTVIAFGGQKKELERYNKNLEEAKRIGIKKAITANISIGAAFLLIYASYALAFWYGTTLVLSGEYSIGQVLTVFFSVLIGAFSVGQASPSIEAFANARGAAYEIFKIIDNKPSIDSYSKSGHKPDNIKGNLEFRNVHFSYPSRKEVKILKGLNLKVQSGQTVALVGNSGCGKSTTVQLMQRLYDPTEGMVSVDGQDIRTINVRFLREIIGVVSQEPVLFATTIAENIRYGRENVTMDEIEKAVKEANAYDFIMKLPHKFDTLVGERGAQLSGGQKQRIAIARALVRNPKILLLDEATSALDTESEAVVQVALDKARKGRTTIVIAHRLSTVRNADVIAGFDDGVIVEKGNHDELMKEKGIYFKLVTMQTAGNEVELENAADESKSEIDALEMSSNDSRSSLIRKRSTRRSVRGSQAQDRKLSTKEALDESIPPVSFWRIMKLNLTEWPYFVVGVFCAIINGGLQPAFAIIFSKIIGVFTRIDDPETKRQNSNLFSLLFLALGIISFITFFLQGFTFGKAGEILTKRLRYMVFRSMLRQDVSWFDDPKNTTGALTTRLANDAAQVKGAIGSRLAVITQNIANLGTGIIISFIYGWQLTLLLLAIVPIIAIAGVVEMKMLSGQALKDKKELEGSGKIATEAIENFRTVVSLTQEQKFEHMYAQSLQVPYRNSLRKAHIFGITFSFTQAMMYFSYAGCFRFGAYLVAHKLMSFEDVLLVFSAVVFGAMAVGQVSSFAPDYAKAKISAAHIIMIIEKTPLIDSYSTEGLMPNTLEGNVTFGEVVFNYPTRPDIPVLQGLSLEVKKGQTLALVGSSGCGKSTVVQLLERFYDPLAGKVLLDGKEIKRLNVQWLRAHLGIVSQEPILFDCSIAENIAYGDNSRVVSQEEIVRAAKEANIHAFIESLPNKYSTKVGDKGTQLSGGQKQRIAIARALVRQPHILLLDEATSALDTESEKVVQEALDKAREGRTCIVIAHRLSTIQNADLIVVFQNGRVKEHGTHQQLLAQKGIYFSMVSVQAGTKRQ

Row | Compound | Activity
1 | CC[C@]1(O)C[C@@H]2CN(CCc3c([nH]c4ccccc34)[C@@](C(=O)OC)(c3cc4c(cc3OC)N(C)[C@H]3[C@@](O)(C(=O)OC)[C@H](OC(C)=O)[C@]5(CC)C=CCN6CC[C@]43[C@@H]65)C2)C1 [VINBLASTINE] | substrate [+]
2 | CCn1nc(Cc2ccccc2)cc1C1CCN(Cc2ccc(C3(N(C)[C@@H](C(=O)O)C(C)C)CCCC3)cc2F)CC1 | substrate [+]
